Results as given in patent publication US20170234860A1, “SEQUENCE AND CHIRAL SELECTIVITY OF DNA-DRUG INTERACTIONS REVEALED BY FORCE SPECTROSCOPY” (UNIVERSITY OF HOUSTON SYSTEM, priority 2014, published 2017).

What was measured:
[1] = test system: DNA duplex 5′-CCC GGG TTT CCC-3′ / 3′-GGG CCC AAT GGG-5′ containing a T-T pair; assay: FIRMS binding force of the T-Hg-T system (DNA duplex with T-T pair)
Description: (§1) Some embodiments of the method of using a differential binding force to quantify the efficiency of a drug molecule to a receptor comprises a process wherein one strand of the DNA duplex is immobilized on a surface, while the other is labeled with a magnetic particle. The binding forces of the DNA duplex are measured in the absence and presence of the drug molecule, denoted as F1 and F2, respectively. The differential binding force, F2-F1, characterizes the influence of the drug-DNA binding on the stability of the DNA. The binding forces are obtained using the FIRMS technique, depicted in FIG. 1.
(§2) Magnetic particles M280 were used to label one strand of the DNA duplexes as previously characterized.^16] After initial magnetization by a permanent magnet, the magnetic signal of the particles were detected by an atomic magnetometer, with a sensitivity of 200 fT/(Hz)^1/2. Sample wells (4×2×1 mm^3) with a biotin-coated bottom surface were used to immobilize the other strand of the DNA duplexes. Mechanical forces were applied using a centrifuge (Eppendorf 5417R).
The sample well, with dimensions of 4×2×1 mm^3 (L×W×D), was coated with biotin on the bottom surface. An aqueous solution of 0.625 mg/mL streptavidin was loaded into the sample well and incubated for 1 hr. Then the sample well was rinsed three times with a buffer solution as described below. […]

[2] = test system: DNA1 (5′-CCC AAT CGA CCC-3′ with complementary strand 5′-GGG TCG ATT GGG-3′); assay: FIRMS binding force of drug with DNA1
Description: as §1
as §2, with “Mechanical forces were applied using a centrifuge (Eppendorf 5417R).” left out
(§3) DNA Intercalation is widely considered as its binding mode, although minor groove binding has also been discussed,^[24] however, the specificity has previously not been quantified by binding strength. […] As a control experiment the differential binding force of daunomycin with a different DNA duplex, DNA2, with sequence 5′-CCC GGG TTT CCC-3′ and its complementary strand was measured.

[3] = test system: DNA2 (5′-CCC GGG TTT CCC-3′ and its complementary strand); assay: FIRMS binding force of drug with DNA2
Description: as §1
as §2, with “Mechanical forces were applied using a centrifuge (Eppendorf 5417R).” left out
as §3

[4] = test system: DNA duplex 5′-CGCGAAAAACGCG-3′; assay: FIRMS binding force of groove-binding drugs with DNA; conditions: for binding force of DNA with drug: DNA alone 59 pN
Description: as §1
The method of differential binding force can also be used to quantify a different binding mode of DNA-drug interactions. We chose two groove-binding drugs, netropsin and berenil. The groove-binding interaction is different from the intercalation interaction of daunomycin and THP. Shown in FIG. 6 are the binding forces of DNA alone, DNA with netropsin, and DNA with berenil, with values of 59, 63, and 73 pN, respectively. The DNA sequence was 5′-CGCGAAAAACGCG-3′ (SEQ. 5). The binding forces yield differential binding force of 4 pN for netropsin and 14 pN for berenil.

[Hg+2] [Hg]
binding force of the DNA duplex upon binding ([1]; DNA alone 40 pN, HEPES buffer pH 7.6): 54 pN
differential binding force (F2-F1) ([1]; increase over DNA alone): 14 pN

COc1cccc2c1C(=O)c1c(O)c3c(c(O)c1C2=O)C[C@@](O)(C(C)=O)C[C@@H]3O[C@H]1C[C@H](N)[C@H](O)[C@H](C)O1 [daunomycin]
differential binding force (F2-F1) [2]: 12 pN
binding force of DNA1 with drug ([2]; DNA alone 45 pN (daunomycin, TE buffer) or 44 pN (THP, BPES buffer)): 57 pN
differential binding force (F2-F1) [3]: no significant force difference
binding force of DNA2 with drug ([3]; DNA alone 51 pN): 52 pN

Cn1cc(NC(=O)c2cc(NC(=O)CN=C(N)N)cn2C)cc1C(=O)NCCC(=N)N [netropsin]
differential binding force (F2-F1) [4]: 4 pN
binding force of DNA with drug [4]: 63 pN

CC(=O)NCC(=O)O.CC(=O)NCC(=O)O.N=C(N)c1ccc(N=NNc2ccc(C(=N)N)cc2)cc1 [berenil]
differential binding force (F2-F1) [4]: 14 pN
binding force of DNA with drug [4]: 73 pN
